Test results published in ChEMBL document CHEMBL5614449, “Open Source Code Contributions to Global Health: The Case of Antimalarial Drug Discovery” (ACS Med Chem Lett, 2024).

System: Plasmodium
Experiment: Antiplasmodial activity against Plasmodium
Format: functional, organism-based

| Compound | IC50 [nM] |
| --- | --- |
| FC(F)Oc1ccc(-c2nnc3cncc(OCc4ccc5c(c4)OCO5)n23)cc1 | > 10000 |
| FC(F)Oc1ccc(-c2nnc3cncc(OCCCC(F)(F)F)n23)cc1 | 410 |
| FC(F)Oc1ccc(-c2nnc3cncc(OCc4ccc(C(F)(F)F)cc4)n23)cc1 | 5270 |
| FC(F)Oc1ccc(-c2nnc3cncc(OCc4cc5c(cc4Cl)OCO5)n23)cc1 | > 25000 |
| O=[N+]([O-])c1cccc(CCOc2cncc3nnc(-c4ccc(OC(F)F)cc4)n23)c1 | 250 |
| Fc1cccc(F)c1COc1cncc2nnc(-c3ccc(OC(F)F)cc3)n12 | 4080 |
| COC(COc1cncc2nnc(-c3ccc(OC(F)F)cc3)n12)c1ccccc1 (stereo not drawn) | 110 |
| FC(F)Oc1ccc(-c2nnc3cncc(OCc4ccccc4)n23)cc1 | 1120 |
| FC(F)Oc1ccc(-c2nnc3cncc(OCc4cccc(Br)c4)n23)cc1 | 670 |

Further compounds by falling IC50, results first:

| IC50 [nM] | Compound |
| --- | --- |
| 5900 | FC(F)Oc1ccc(-c2nnc3cncc(OCc4cnccc4C(F)(F)F)n23)cc1 |
| 5040 | FC(F)Oc1ccc(-c2nnc3cncc(OCc4cc(OC(F)F)ccn4)n23)cc1 |
| 2460 | FC(F)Oc1ccc(-c2nnc3cncc(OCc4csc(C(F)(F)F)c4)n23)cc1 |
| 1350 | Fc1cccc(OCCOc2cncc3nnc(-c4ccc(OC(F)F)cc4)n23)c1 |
| 890 | FC(F)Oc1ccc(-c2nnc3cncc(OCc4ccccc4C(F)(F)F)n23)cc1 |
| 480 | Fc1cc2c(cc1F)C(COc1cncc3nnc(-c4ccc(OC(F)F)cc4)n13)C2 (stereo not drawn) |
| 390 | FC(F)Oc1ccc(-c2nnc3cncc(OCc4cccc(C(F)(F)F)c4)n23)cc1 |
| 170 | FC(F)Oc1ccc(-c2nnc3cncc(OCCc4ccccc4)n23)cc1 |
| 77 | COC(COc1cncc2nnc(-c3ccc(OC(F)F)cc3)n12)c1ccc(OC(F)F)cc1 (stereo not drawn) |
